What all share (format): functional
Test [1] deals with Interleukin-1 receptor-associated kinase 4 (Homo sapiens, UniProt Q9NWZ3).
The target in test [2] is Interleukin-1 receptor-associated kinase 1 (Homo sapiens, UniProt P51617).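 Note: IRAK1 tested as one member of a kinome panel.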
Test [3] addresses Serine/threonine-protein kinase MRCK alpha (Homo sapiens, UniProt Q5VT25).
In test [4] the target is Dual specificity protein kinase CLK2 (Homo sapiens, UniProt P49760).
Test [5] has as its target Tyrosine-protein kinase JAK3 (Homo sapiens, UniProt P52333).
Test [6] addresses Serine/threonine-protein kinase DCLK1 (Homo sapiens, UniProt O15075).
Test [7] has as its target Platelet-derived growth factor receptor alpha (Homo sapiens, UniProt P16234). The experiment in a line: Navigating the Kinome. Panel member name: PDGFRA.
The target in test [8] is Tyrosine-protein kinase Fyn (Homo sapiens, UniProt P06241).
Test [9] has as its target Dual specificity tyrosine-phosphorylation-regulated kinase 1A (Homo sapiens, UniProt Q13627).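 Note: measured against DYRK1A as one member of a broad kinome profiling panel.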
The target in test [10] is Cyclin-dependent kinase 9 (Homo sapiens, UniProt P50750).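 Note: value from the CDK9 entry of a kinome-spanning kinase panel.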
In test [11] the target is Mitogen-activated protein kinase 13 (Homo sapiens, UniProt O15264).
In test [12] the target is BDNF/NT-3 growth factors receptor (Homo sapiens, UniProt Q16620).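 Note: NTRK2 measured as one member of a broad kinome-wide kinase profiling panel.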
For test [13], the target named is Testis-specific serine/threonine-protein kinase 2 (Homo sapiens, UniProt Q96PF2).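 Note: part of the Navigating the Kinome panel, target entry STK22B.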
Test [14] concerns the target Homeodomain-interacting protein kinase 4 (Homo sapiens, UniProt Q8NE63).
Test [15] has as its target Casein kinase II subunit alpha (Homo sapiens, UniProt P68400).
Test [16] has as its target Receptor tyrosine-protein kinase erbB-4 (Homo sapiens, UniProt Q15303).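 Note: ERBB4 member of a kinome-wide kinase profiling panel.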
For test [17], the target named is Calcium/calmodulin-dependent protein kinase type II subunit delta (Homo sapiens, UniProt Q13557).
For test [18], the target named is SRSF protein kinase 1 (Homo sapiens, UniProt Q96SB4).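 Note: measured as one member of a kinome-wide kinase profiling panel.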
Test [19] addresses Calcium/calmodulin-dependent protein kinase type II subunit beta (Homo sapiens, UniProt Q13554).
Test [20] addresses Serine/threonine-protein kinase pim-2 (Homo sapiens, UniProt Q9P1W9).
Test [21] concerns the target Casein kinase I isoform gamma-1 (Homo sapiens, UniProt Q9HCP0).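 Note: measured as the CSNK1G1 member of a kinome profiling panel.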
The target in test [22] is RAC-gamma serine/threonine-protein kinase (Homo sapiens, UniProt Q9Y243).
The target in test [23] is Focal adhesion kinase 1 (Homo sapiens, UniProt Q05397).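 Note: measured as one member of a kinome panel.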
For test [24], the target named is Phosphorylase b kinase gamma catalytic chain, liver/testis isoform (Homo sapiens, UniProt P15735).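 Note: PHKG2 measured as one member of a kinome-wide kinase panel.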
Test [25] has as its target Cyclin-dependent kinase 7 (Homo sapiens, UniProt P50613).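 Note: value comes from a kinome-wide kinase profiling panel in which CDK7 is one member.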
For test [26], the target named is Cyclin-dependent kinase 19 (Homo sapiens, UniProt Q9BWU1). The test is described as follows: Navigating the Kinome. Panel member name: CDC2L6.
In test [27] the target is Glycogen synthase kinase-3 alpha (Homo sapiens, UniProt P49840).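 Note: GSK3A result taken from a broad kinome-wide kinase panel.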
For test [28], the target named is Calcium/calmodulin-dependent protein kinase kinase 2 (Homo sapiens, UniProt Q96RR4). The experiment in a line: Navigating the Kinome. Panel member name: CAMKK2.
In test [29] the target is Casein kinase I isoform delta (Homo sapiens, UniProt P48730).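 Note: measured as one member (CSNK1D) of a kinome panel.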
Test [30] has as its target Calcium/calmodulin-dependent protein kinase type II subunit alpha (Homo sapiens, UniProt Q9UQM7). The test is described as follows: Navigating the Kinome. Panel member name: CAMK2A.
Test [31] addresses Serine/threonine-protein kinase 3 (Homo sapiens, UniProt Q13188).
For test [32], the target named is Mitogen-activated protein kinase 1 (Homo sapiens, UniProt P28482).
In test [33] the target is Homeodomain-interacting protein kinase 2 (Homo sapiens, UniProt Q9H2X6).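 Note: measured within a kinome-wide kinase profiling panel, HIPK2 being one panel member.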
In test [34] the target is Testis-specific serine/threonine-protein kinase 1 (Homo sapiens, UniProt Q9BXA7).
In test [35] the target is Proto-oncogene tyrosine-protein kinase ROS (Homo sapiens, UniProt P08922).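 Note: ROS1 tested as one member of a kinome-wide kinase panel.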
For test [36], the target named is Dual specificity mitogen-activated protein kinase kinase 1 (Homo sapiens, UniProt Q02750). The test is described as follows: Navigating the Kinome. Panel member name: MAP2K1.
Test [37] has as its target Neuropeptides B/W receptor type 1 (Homo sapiens, UniProt P48145). The experiment in a line: GPR7 antagonist potency, late-stage follow-up, cell-based, fluorescence, dose response, set 6 (AID 588583).
The target in test [38] is Melanin-concentrating hormone receptor 1 (Homo sapiens, UniProt Q99705). The test is described as follows: Late-stage fluorescence-based counterscreen for antagonists of the G-protein coupled receptor 7 (GPR7): cell-based dose response assay to identify antagonists of the melanin-concentrating hormone receptor 1 (MCHR1) Set 6.

From ChEMBL document CHEMBL1201862, “PubChem BioAssay data set” (2004) come the findings set out here.

The structures appear in SMILES notation. Active and inactive are the calls of the source. A value given as a limit tells only on which side of the number the result lay.

Chain of Tyrosine-protein kinase JAK3 (P52333 whole entry): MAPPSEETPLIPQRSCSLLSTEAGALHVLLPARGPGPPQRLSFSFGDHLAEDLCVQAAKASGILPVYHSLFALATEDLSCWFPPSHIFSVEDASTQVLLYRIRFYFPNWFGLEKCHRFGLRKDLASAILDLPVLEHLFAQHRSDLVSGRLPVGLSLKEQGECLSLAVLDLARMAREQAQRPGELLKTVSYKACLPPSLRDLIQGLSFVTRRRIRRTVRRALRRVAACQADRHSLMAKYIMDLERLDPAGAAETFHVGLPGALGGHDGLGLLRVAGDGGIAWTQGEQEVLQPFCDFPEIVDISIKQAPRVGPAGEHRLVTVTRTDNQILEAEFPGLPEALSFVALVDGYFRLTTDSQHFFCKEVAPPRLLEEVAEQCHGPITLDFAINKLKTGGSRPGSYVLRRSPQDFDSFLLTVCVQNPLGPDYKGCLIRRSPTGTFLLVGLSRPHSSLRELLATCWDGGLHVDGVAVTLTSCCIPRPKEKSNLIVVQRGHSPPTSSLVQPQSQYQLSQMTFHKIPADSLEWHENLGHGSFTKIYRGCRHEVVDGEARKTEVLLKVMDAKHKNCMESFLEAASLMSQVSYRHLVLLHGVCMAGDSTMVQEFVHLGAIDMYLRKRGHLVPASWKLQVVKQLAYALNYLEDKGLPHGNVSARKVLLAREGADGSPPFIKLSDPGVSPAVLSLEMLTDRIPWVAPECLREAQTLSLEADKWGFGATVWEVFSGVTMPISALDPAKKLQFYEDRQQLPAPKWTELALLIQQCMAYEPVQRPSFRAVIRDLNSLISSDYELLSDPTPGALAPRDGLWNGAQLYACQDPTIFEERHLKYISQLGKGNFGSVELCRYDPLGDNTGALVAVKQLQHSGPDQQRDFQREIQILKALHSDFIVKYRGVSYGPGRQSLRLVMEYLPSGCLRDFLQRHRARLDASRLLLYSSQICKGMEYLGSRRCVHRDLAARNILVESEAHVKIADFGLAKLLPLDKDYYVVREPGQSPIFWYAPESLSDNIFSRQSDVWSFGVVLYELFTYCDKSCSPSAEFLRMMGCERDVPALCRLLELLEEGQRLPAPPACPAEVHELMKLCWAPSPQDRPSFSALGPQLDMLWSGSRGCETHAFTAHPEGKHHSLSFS
Chain of Tyrosine-protein kinase Fyn (P06241 whole entry): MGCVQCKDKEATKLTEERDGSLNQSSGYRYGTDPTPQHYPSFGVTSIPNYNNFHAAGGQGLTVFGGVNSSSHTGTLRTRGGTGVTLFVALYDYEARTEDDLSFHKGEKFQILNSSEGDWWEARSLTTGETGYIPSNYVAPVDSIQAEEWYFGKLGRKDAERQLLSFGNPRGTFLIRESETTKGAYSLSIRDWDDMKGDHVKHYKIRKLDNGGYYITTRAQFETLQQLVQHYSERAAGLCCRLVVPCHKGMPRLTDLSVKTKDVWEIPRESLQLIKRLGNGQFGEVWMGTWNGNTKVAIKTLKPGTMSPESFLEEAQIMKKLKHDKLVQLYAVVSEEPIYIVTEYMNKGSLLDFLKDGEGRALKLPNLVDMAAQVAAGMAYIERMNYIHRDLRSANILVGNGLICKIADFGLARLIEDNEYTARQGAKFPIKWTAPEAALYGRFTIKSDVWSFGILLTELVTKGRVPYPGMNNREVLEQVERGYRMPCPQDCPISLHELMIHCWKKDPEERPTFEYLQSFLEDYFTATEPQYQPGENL
Chain of Testis-specific serine/threonine-protein kinase 1 (Q9BXA7 whole entry): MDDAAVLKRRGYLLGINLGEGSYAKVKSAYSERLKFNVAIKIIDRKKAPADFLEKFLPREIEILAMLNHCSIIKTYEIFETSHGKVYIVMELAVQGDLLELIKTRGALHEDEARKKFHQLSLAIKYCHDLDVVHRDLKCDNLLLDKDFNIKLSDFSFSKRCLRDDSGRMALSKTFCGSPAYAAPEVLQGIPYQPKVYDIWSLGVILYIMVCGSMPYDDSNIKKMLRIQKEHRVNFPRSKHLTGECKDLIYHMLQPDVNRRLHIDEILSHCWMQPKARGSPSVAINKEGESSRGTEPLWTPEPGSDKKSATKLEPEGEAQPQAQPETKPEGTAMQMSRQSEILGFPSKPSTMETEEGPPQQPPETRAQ
Chain of Mitogen-activated protein kinase 1 (P28482 whole entry): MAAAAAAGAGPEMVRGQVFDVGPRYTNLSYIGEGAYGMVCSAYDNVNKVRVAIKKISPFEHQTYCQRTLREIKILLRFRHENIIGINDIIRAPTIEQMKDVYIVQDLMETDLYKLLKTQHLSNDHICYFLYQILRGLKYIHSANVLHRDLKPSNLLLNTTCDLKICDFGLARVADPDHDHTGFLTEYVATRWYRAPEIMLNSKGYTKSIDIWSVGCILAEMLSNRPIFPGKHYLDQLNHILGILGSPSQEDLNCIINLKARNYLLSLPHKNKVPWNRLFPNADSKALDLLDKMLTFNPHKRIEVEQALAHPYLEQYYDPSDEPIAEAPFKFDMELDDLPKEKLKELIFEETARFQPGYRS
Chain of Receptor tyrosine-protein kinase erbB-4 (Q15303 whole entry): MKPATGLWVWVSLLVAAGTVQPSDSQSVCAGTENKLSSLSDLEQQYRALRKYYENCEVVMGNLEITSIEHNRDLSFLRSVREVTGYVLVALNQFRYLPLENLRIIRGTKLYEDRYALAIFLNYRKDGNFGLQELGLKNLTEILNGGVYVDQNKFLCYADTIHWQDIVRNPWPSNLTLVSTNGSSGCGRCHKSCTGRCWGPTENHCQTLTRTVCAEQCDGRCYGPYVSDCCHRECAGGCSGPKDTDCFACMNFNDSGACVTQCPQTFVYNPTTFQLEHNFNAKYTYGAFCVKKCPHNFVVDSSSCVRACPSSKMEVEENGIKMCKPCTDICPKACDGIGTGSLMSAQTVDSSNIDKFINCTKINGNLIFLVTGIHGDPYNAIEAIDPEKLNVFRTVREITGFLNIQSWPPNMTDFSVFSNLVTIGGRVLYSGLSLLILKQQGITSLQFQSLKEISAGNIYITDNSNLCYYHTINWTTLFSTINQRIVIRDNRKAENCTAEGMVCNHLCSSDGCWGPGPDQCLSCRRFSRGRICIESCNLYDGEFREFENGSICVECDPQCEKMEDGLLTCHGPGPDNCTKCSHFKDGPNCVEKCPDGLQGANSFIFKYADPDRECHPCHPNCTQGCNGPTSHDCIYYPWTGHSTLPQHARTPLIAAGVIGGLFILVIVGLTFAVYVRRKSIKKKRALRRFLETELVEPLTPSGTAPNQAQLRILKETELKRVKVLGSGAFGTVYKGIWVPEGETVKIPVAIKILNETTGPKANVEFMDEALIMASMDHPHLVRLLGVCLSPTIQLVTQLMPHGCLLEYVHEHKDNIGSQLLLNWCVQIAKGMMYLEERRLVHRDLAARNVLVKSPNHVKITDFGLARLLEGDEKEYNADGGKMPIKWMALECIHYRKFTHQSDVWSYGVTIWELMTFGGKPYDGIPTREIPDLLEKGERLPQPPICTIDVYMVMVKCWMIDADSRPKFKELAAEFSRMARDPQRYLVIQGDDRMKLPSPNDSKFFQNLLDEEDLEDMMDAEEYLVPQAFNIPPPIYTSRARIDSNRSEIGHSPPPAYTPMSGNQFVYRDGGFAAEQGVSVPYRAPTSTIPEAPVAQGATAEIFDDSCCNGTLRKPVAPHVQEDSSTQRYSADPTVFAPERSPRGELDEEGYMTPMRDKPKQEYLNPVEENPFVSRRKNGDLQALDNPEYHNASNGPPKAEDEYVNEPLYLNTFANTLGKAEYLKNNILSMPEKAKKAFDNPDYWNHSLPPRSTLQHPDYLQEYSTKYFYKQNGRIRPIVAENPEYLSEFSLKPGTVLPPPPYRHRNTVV
Chain of Calcium/calmodulin-dependent protein kinase kinase 2 (Q96RR4 whole entry, canonical isoform): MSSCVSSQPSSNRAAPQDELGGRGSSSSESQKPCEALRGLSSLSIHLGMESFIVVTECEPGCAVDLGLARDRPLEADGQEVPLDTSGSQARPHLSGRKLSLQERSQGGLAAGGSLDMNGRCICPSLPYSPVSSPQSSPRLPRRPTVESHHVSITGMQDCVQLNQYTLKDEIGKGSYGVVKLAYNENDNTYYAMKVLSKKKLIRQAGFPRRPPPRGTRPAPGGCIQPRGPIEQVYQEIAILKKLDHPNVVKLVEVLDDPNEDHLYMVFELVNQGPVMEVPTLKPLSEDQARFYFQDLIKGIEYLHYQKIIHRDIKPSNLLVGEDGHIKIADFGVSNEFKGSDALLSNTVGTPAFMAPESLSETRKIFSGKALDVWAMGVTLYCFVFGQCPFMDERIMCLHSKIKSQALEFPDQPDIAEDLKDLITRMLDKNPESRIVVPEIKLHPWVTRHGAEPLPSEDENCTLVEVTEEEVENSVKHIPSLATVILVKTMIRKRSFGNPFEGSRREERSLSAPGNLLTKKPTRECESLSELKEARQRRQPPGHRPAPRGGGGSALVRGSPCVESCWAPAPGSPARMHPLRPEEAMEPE
Chain of Serine/threonine-protein kinase pim-2 (Q9P1W9 whole entry, canonical isoform): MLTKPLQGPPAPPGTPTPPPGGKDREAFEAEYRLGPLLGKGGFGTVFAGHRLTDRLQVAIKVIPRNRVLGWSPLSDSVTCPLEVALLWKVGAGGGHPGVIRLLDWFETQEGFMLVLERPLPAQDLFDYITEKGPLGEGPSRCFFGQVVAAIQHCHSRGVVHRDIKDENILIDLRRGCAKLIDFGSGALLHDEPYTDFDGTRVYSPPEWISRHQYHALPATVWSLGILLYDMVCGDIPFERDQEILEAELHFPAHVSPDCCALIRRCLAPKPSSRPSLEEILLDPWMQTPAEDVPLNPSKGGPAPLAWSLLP
Chain of Testis-specific serine/threonine-protein kinase 2 (Q96PF2 whole entry): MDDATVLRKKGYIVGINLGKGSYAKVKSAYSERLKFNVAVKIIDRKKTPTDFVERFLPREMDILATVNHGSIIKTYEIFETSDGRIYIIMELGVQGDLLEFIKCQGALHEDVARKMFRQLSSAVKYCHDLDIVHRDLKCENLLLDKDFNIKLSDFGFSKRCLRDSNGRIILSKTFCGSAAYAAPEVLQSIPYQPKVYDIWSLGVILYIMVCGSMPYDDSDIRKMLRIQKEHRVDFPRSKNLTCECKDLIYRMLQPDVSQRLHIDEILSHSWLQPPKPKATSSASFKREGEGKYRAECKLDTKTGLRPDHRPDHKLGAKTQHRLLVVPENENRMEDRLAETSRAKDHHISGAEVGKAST

With `Cc1cc(Nc2cc(N3CCN(C)CC3)nc(Sc3ccc(NC(=O)C4CC4)cc3)n2)[nH]n1` [TOZASERTIB], the inhibition constant Ki in test [1] is 2.51 µM (active); in test [2] it was > 7.94 µM (inactive); in test [3], > 10 µM (inactive); in test [4] it was > 3.98 µM (inactive); in test [5] it was > 5.01 µM (inactive); in test [6], > 10 µM (inactive). Moreover, the Ki in test [7] was > 0.501 µM (inactive); in test [8], 3.16 µM (active); in test [9] it was > 2 µM (inactive); in [10], > 1.58 µM (inactive); in test [11] it was > 7.94 µM (inactive); in test [12], 0.316 µM (active). Further, the Ki in [13] was > 1.58 µM (inactive); in test [14], > 7.94 µM (inactive); in test [15] it was > 6.31 µM (inactive); in test [16], > 3.98 µM (inactive); in test [17], > 6.31 µM (inactive); in test [18], > 7.94 µM (inactive). Further, the Ki in test [19] is > 7.94 µM (inactive); in test [20] it was > 1.58 µM (inactive); in test [21], > 6.31 µM (inactive); in test [22], > 10 µM (inactive); in test [23] it was > 6.31 µM (inactive); in test [24], > 5.01 µM (inactive). For the same compound, the Ki was > 3.98 µM (inactive) in [25]; 0.2 µM (active) in test [26]; > 3.98 µM (inactive) in test [27]; > 2.51 µM (inactive) in test [28]; > 7.94 µM (inactive) in [29]; > 3.98 µM (inactive) in [30]. Further, the Ki in test [31] was > 2.51 µM (inactive); in [32], > 7.94 µM (inactive); in test [33], > 3.16 µM (inactive); in test [34] it was > 1.58 µM (inactive); in test [35], 0.158 µM (active); in test [36] it was 1.26 µM (active).

For the compound `C=Cc1cnn(Cc2cccc3ccccc23)c(=O)c1C(C#N)c1ccccc1` (stereo not drawn), the IC50 in [37] and in test [38] was 2.55 µM (active) each time.
